In patent publication US20260096978A1, “A METHOD FOR PREVENTING, […]/OR TREATING PTGS2-INDUCED SKIN DISORDERS AND RELATED DYSFUNCTIONS” (Symrise AG, priority 2022, published 2026):

Columns and labels:
[1] = test system: PTGS2; assay: PTGS2 gene expression (real-time RT-PCR) in ex vivo human skin biopsies exposed to solar simulated radiation; format: cell-based; conditions: for PTGS2 gene expression, fold-change versus non-irradiated vehicle: SSR 250 J/cm^2 daily, day 2; for PTGS2 gene expression, % of irradiated vehicle: irradiated vehicle = 100; for PTGS2 gene expression, Δ versus irradiated vehicle: irradiated vehicle Δ = 0; for Effect on SSR-induced PTGS2 gene expression, in words: ex vivo human skin, SSR 250 J/cm^2
Experimental: (§1) In order to evaluate the efficacy of L-Carnosine on protecting skin from Solar Simulated Radiation (SSR), gene expression and protein level of PTGS2 were analysed. -Ex vivo human skin biopsies were topically treated with L-Carnosine at different concentrations (0.2% and 2.2%), and daily exposed to 250 J/cm^2 of SSR. Gene expression and protein modulation were assessed respectively at day 2 and day3. The radiation dose was selected following the literature, and represent the approximative amount of solar light acquirable under natural conditions by sunbathing.
(§2) Human skin samples were obtained from plastic surgery of healthy patients (aged between 25 and 60), and not intensive sun exposed. The informed consent was obtained from patients and retained by clinic. For the studies, twelve 8 mm diameter punch biopsies were used for each treatment. The skin samples were cultured in modified Williams' E medium at air-liquid interface and, maintained in incubator at the following conditions: 37° C., 5% CO2 and 95% humidity.
(§3) For these studies L-Carnosine was dissolved in vehicle (DMSO/PBS 1:25) at the following concentration 0.2% and 2.2%. Treatments were applied topically and renewed daily as follows: skin biopsies were cleaned with sterile cotton buds and 4 μl of treatment were applied on the biopsy's epidermis. All treated and the control samples were covered with 6 mm diameter delivery membranes.
(§4) Skin irradiation was performed daily, with Suntest XLS+(Ametek Inc., USA) equipped with the provided IR filter and a DAY LIGHT filter, to obtain an emission spectrum between 300 and 800 nm. Every day the skin samples were irradiated with a SSR dose of 250 J/cm^2. Control samples were sham-irradiated under the same conditions.
Human skin biopsies were collected in cryo-vial containing a commercial RNA stabilization solution (RNAlater, Merck KGaA, Germany) and stored at −80° C. Total RNA was extracted using a commercial kit (Rneasy mini-kit, Qiagen GmbH, Germany) according to the manufacturer's instructions. The expression level of selected genes was determined using Real-time RT-PCR method with custom designed gene array (TaqMan® Array 96-Well Fast Plates, Thermo Fisher Scientific Inc., USA).
Gene expression changes were determined in three donors.

[2] = test system: PTGS2; assay: PTGS2 protein level (IHC staining) in ex vivo human skin biopsies exposed to solar simulated radiation; format: cell-based; conditions: SSR 250 J/cm^2; for PTGS2 protein level, mean as % of non-irradiated vehicle / PTGS2 protein level, Δ versus non-irradiated vehicle / PTGS2 protein level, mean score: day 3; for PTGS2 protein level, mean as % of non-irradiated vehicle: irradiated vehicle 198%; for PTGS2 protein level, Δ versus non-irradiated vehicle: irradiated vehicle Δ 98%; for PTGS2 protein level, mean score: non-irradiated vehicle 1.0302, irradiated vehicle 2.0439
Experimental: as §1, §2, §3, §4
Skin samples were collected (day 3), fixed in formalin and paraffin embedded. Skin sections were immuno-stained with PTGS2 antibody (Thermo Fisher Scientific Inc., USA). The images of the skin sections were acquired, and the analysis was performed through Image-J application (NIH, USA).

NCCC(=O)N[C@@H](Cc1cnc[nH]1)C(=O)O [L-Carnosine]
PTGS2 gene expression, fold-change versus non-irradiated vehicle ([1]; Donor #1, L-Carnosine 0.2% topical, irradiated vehicle 5.3): 4.2 fold-change | PTGS2 gene expression, % of irradiated vehicle ([1]; Donor #1, L-Carnosine 0.2%): 79% | PTGS2 gene expression, Δ versus irradiated vehicle ([1]; Donor #1, L-Carnosine 0.2%): −21 | PTGS2 gene expression, fold-change versus non-irradiated vehicle ([1]; Donor #1, L-Carnosine 2.2% topical, irradiated vehicle 5.3): 4.0 fold-change | PTGS2 gene expression, % of irradiated vehicle ([1]; Donor #1, L-Carnosine 2.2%): 76% | PTGS2 gene expression, Δ versus irradiated vehicle ([1]; Donor #1, L-Carnosine 2.2%): −24 | PTGS2 gene expression, fold-change versus non-irradiated vehicle ([1]; Donor #2, L-Carnosine 0.2% topical, irradiated vehicle 13.9): 11.3 fold-change | PTGS2 gene expression, % of irradiated vehicle ([1]; Donor #2, L-Carnosine 0.2%): 81% | PTGS2 gene expression, Δ versus irradiated vehicle ([1]; Donor #2, L-Carnosine 0.2%): −19 | PTGS2 gene expression, fold-change versus non-irradiated vehicle ([1]; Donor #2, L-Carnosine 2.2% topical, irradiated vehicle 13.9): 7.7 fold-change | PTGS2 gene expression, % of irradiated vehicle ([1]; Donor #2, L-Carnosine 2.2%): 55% | PTGS2 gene expression, Δ versus irradiated vehicle ([1]; Donor #2, L-Carnosine 2.2%): −45 | PTGS2 gene expression, fold-change versus non-irradiated vehicle ([1]; Donor #3, L-Carnosine 0.2% topical, irradiated vehicle 2.0): 1.4 fold-change | PTGS2 gene expression, % of irradiated vehicle ([1]; Donor #3, L-Carnosine 0.2%): 70% | PTGS2 gene expression, Δ versus irradiated vehicle ([1]; Donor #3, L-Carnosine 0.2%): −30 | PTGS2 gene expression, fold-change versus non-irradiated vehicle ([1]; Donor #3, L-Carnosine 2.2% topical, irradiated vehicle 2.0): 1.4 fold-change | PTGS2 gene expression, % of irradiated vehicle ([1]; Donor #3, L-Carnosine 2.2%): 72% | PTGS2 gene expression, Δ versus irradiated vehicle ([1]; Donor #3, L-Carnosine 2.2%): −28 | Effect on SSR-induced PTGS2 gene expression, in words [1]: efficiently reduce the SSR-induced induction of the PTGS2 gene | Effect on SSR-induced PTGS2 gene expression, in words ([1]; listed as L-carnosine): reduces the expression of PTGS2 | PTGS2 protein level, mean as % of non-irradiated vehicle ([2]; L-Carnosine 0.2%): 193% | PTGS2 protein level, Δ versus non-irradiated vehicle ([2]; L-Carnosine 0.2%): 93% | PTGS2 protein level, mean score ([2]; L-Carnosine 0.2%): 1.9913 | PTGS2 protein level, mean as % of non-irradiated vehicle ([2]; L-Carnosine 2.2%): 146% | PTGS2 protein level, Δ versus non-irradiated vehicle ([2]; L-Carnosine 2.2%): 46% | PTGS2 protein level, mean score ([2]; L-Carnosine 2.2%): 1.5091 | Effect on SSR-induced PTGS2 protein, in words ([2]; ex vivo human skin): efficiently reduce the SSR-induced induction of the PTGS2 gene and the PTGS2-protein
